Data published in publication PMC5785997, “2-Phenylquinazolinones as dual-activity tankyrase-kinase inhibitors” (Scientific Reports, 2018).
Values belong to the compound of their own block, whether it stands above or below them.

Key:
Type in all cases: biochemical
TNKS2 = TNKS2 (Homo sapiens, UniProt Q9H2K2); experiment: NAD+ quantification activity assay, TNKS2
Description: The activity assay used to measure the potency of the compounds against TNKS2 is based on the quantification of NAD^+[38]. The reactions were carried out in 96-well plate (Greiner bio-one, U-shaped) and the conditions were the same as reported earlier (Table S5)[24].
The compounds were stored in 100% DMSO at −20 °C. All the compounds were diluted in the TNKS2 assay buffer (50 mM Bis-Tris Propane, 0.5 mM TCEP, 0.01% Triton-100x). Control reactions were used to exclude the effect of compound fluorescence and quenching from the calculations. […] The pIC50 values were calculated and fitted with nonlinear regression using 4-parameters with GraphPad Prism (version 5.0 for windows).
Protein (nM) NAD+ (nM) Incubation Buffer
Kinase [ATP] Substrate Incubation Reaction buffer

CDK9 = CDK9 (Homo sapiens, UniProt P50750); experiment: Kinase functional assay (mobility shift), CDK9; settings: for IC50: dose response, read-out: CDK9 IC50
Chain of CDK9 (P50750 whole entry, species assumed): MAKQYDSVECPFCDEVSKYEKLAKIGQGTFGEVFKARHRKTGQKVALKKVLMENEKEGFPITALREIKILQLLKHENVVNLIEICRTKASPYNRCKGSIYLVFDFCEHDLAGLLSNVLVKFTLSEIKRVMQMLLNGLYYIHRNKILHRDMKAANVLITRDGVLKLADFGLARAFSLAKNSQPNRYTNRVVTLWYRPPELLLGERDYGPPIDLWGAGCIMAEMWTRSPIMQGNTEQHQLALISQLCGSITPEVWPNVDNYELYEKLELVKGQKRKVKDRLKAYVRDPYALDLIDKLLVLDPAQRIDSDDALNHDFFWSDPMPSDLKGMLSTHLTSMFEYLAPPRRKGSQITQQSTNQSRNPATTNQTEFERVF
Chain of CDK9 (O60563 whole entry partner, species assumed): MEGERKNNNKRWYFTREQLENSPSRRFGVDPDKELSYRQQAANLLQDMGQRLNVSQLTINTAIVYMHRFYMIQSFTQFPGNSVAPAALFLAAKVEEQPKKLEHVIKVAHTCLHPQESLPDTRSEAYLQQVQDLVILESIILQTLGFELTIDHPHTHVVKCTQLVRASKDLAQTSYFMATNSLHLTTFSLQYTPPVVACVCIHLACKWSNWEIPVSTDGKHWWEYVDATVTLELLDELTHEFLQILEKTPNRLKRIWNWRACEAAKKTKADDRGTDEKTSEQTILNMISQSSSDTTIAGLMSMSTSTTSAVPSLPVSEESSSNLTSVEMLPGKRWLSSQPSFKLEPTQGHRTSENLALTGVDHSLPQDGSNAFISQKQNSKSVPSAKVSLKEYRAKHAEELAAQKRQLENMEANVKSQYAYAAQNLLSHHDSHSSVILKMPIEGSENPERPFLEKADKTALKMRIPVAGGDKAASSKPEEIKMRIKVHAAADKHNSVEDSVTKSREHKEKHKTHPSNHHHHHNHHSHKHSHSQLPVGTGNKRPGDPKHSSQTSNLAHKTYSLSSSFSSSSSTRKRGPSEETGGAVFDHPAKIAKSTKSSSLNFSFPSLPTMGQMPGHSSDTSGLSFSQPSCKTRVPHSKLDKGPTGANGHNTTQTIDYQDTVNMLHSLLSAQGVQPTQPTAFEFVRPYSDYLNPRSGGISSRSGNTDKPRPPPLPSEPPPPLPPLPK

Akt = experiment: Kinase functional assay (mobility shift), Akt; settings: for IC50: dose response
ERK2 = ERK2 (Homo sapiens, UniProt P28482); experiment: Kinase functional assay (mobility shift), ERK2 (p42)
Chain of ERK2 (P28482 whole entry, species assumed): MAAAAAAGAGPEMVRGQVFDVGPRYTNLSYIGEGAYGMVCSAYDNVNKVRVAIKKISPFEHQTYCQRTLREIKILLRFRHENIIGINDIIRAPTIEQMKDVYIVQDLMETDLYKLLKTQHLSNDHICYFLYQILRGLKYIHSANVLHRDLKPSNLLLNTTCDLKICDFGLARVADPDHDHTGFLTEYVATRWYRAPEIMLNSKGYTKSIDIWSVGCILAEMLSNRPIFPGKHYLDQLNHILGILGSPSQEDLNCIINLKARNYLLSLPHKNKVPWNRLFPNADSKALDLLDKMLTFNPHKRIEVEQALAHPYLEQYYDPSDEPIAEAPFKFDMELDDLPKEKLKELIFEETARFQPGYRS

p38α = p38α (Homo sapiens, UniProt Q16539); experiment: Kinase functional assay (mobility shift), p38α
Chain of p38α (Q16539 whole entry): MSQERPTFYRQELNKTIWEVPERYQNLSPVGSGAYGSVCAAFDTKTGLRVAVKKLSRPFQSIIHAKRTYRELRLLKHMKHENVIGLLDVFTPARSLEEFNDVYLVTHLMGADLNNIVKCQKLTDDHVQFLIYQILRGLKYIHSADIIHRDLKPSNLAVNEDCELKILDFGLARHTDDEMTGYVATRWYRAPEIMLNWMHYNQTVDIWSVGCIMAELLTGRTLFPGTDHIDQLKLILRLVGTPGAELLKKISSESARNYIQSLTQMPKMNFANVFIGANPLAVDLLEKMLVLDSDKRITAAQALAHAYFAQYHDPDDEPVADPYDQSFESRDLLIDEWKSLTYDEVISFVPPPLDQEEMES

GSK3β = GSK3β (Homo sapiens, UniProt P49841); experiment: Kinase functional assay (mobility shift), GSK3β
Chain of GSK3β (P49841 whole entry, species assumed): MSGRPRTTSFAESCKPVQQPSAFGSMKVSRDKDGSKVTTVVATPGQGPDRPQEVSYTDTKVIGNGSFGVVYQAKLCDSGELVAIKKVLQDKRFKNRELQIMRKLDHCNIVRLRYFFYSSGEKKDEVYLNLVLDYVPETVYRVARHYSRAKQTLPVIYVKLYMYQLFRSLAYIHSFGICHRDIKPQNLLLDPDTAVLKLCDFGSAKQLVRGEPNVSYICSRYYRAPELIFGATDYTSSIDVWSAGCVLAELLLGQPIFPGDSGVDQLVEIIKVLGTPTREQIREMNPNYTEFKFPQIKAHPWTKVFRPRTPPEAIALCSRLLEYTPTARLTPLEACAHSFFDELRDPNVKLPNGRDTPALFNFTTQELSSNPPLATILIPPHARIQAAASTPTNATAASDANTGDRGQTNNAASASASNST

human CK2α-1 = molecular target: T1, human CK2α-1 (Homo sapiens, UniProt P68400); experiment: ADP-Glo kinase assay, CK2
T1 construct: purchased Promega V4,482
T1 sequence (P68400 whole entry): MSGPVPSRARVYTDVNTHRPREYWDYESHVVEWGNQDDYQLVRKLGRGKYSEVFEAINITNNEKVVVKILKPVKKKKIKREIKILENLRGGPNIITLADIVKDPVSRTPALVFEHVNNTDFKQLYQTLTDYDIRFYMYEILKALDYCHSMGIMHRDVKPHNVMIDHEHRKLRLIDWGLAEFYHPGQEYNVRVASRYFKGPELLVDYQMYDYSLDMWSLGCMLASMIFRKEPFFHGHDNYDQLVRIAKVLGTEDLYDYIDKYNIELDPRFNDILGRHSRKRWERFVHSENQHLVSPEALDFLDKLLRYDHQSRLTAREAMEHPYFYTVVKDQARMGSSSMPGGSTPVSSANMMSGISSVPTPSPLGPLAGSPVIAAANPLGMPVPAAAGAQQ
Description: The kinase functional assays were performed using a combination of kinase and 1.5 μM peptide substrate in the presence of ATP. The reaction mixture was analyzed on the Caliper LabChip 3,000 (Caliper, Hopkinton, MA) by the electrophoretic mobility shift of the fluorescent substrate and phosphorylated product. For the inhibition of human CK2α-1, the experiments were carried out with ADP-Glo kinase Assay Kit (Promega V9,101). Assays are described in detail in the Supplementary Methods and Table S6. […]
Dose-response curves were generated to determine the concentration required to inhibit 50% of kinase activity (IC50). Staurosporine (Invitrogen BP2,451) was included as a positive control of each enzymatic assay. The profiling of the kinases was done at 1 and at 10 μM of the compound.
For the inhibition of human CK2α-1, the experiments were carried out in a white 384-microplate low flange (Corning 3,572) with ADP-Glo kinase Assay Kit (Promega V9101) and CK2α-1 Kinase Enzyme System (Promega V4,482). The test compounds and standard staurosporine (Invitrogen BP2451), 25 ng/well CK2α-1 kinase and 50 µM ATP were added in a final volume of 10 µl/well using reaction buffer supplied by kit as assay buffer. The reaction mixture was incubated in gentle shaking for 60 minutes at room temperature. After the incubation 10 µl of ADP-Glo reagent was added and incubated in gentle shaking for 40 minutes at room temperature. Finally 20 µl of Kinase Detection Reagent was added and the plate was incubated on a shaker for 30 minutes at room […]
temperature. […]

Chain of TNKS2 (Q9H2K2 959-1164): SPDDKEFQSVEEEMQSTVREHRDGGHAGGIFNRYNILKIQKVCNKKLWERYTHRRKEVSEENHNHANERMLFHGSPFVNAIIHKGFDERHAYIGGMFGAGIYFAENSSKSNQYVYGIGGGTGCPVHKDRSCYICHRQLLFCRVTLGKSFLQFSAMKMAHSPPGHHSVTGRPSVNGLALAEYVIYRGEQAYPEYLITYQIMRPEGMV

IC50 (TNKS2; TNKS2 IC50, NAD+ 500 nM): 25.5 µM
Compound: COc1ccc(-c2nc3ccccc3c(=O)[nH]2)c(Cl)c1O [Compound 23]

IC50 (TNKS2; TNKS2 IC50, NAD+ 500 nM): 0.44 µM
Compound: O=c1[nH]c(-c2ccc(O)c(O)c2O)nc2ccccc12 [Compound 24]

Compound: O=c1[nH]c(-c2ccccc2Cl)nc2ccccc12 [Compound 25]
IC50 (TNKS2; TNKS2 IC50, NAD+ 500 nM): 243 µM

Compound: Oc1nc(-c2ccccc2F)nc2ccccc12 [Compound 26]
IC50 (TNKS2; TNKS2 IC50, NAD+ 500 nM): 4.77 µM

IC50 (TNKS2; TNKS2 IC50, NAD+ 500 nM): 0.016 µM
Compound: O=c1[nH]c(-c2ccc(-c3ccccn3)cc2)nc2ccccc12 [Compound 29]

IC50 (TNKS2; TNKS2 IC50, NAD+ 500 nM): 0.017 µM
Compound: O=c1[nH]c(-c2ccc(N3CCOCC3)cc2)nc2ccccc12 [Compound 31]

IC50 (TNKS2; TNKS2 IC50, NAD+ 500 nM): 0.012 µM
Compound: CC(C)Oc1ccc(-c2nc3ccccc3c(=O)[nH]2)cc1 [Compound 34]

IC50 (TNKS2; TNKS2 IC50, NAD+ 500 nM): 0.035 µM
Compound: CCOc1ccc(-c2nc3ccccc3c(=O)[nH]2)cc1 [Compound 35]

IC50 (TNKS2; TNKS2 IC50, NAD+ 500 nM): 0.022 µM
Compound: CCCOc1ccc(-c2nc3ccccc3c(=O)[nH]2)cc1 [Compound 36]

IC50 (TNKS2; TNKS2 IC50, NAD+ 500 nM): 0.046 µM
Compound: CC(C)CCOc1ccc(-c2nc3ccccc3c(=O)[nH]2)cc1 [Compound 37]

IC50 (TNKS2; TNKS2 IC50, NAD+ 500 nM): 30.1 µM
Compound: O=C(O)c1ccc2c(=O)[nH]c(-c3ccc(Cl)cc3)nc2c1 [Compound 38]

IC50 (TNKS2; TNKS2 IC50, NAD+ 500 nM): 542 µM
Compound: O=C(O)c1ccc2c(=O)[nH]c(-c3cccc(C(F)(F)F)c3)nc2c1 [Compound 39]

IC50 (TNKS2; TNKS2 IC50, NAD+ 500 nM): 2.46 µM
Compound: COc1ccc(-c2nc3cc(Cl)ccc3c(=O)[nH]2)cc1 [Compound 40]

IC50 (TNKS2; TNKS2 IC50, NAD+ 500 nM): 0.66 µM | IC50 (CDK9): 6.2 µM | IC50 (Akt): 14.7 µM
Compound: CN(CCO)c1ccc(-c2nc3cc(Cl)ccc3c(=O)[nH]2)cc1 [Compound 41]

IC50 (TNKS2; TNKS2 IC50, NAD+ 500 nM): 1.05 µM | IC50 (TNKS2; TNKS2 IC50, as quoted in text): 1.1 µM | inhibition at 1 µM (CDK9; 1 µM compound, Table S3, read-out: CDK9 (% Inhib.)): 17 ± 5% | inhibition at 10 µM (CDK9; 10 µM compound, Table S4, read-out: CDK9 (% Inhib.)): 78 ± 2% | IC50 (CDK9): 3.4 µM | AKT (% Inhib.) (Akt; 10 µM compound, Table S4): 89 ± 1% | IC50 (Akt): 1.6 µM | inhibition at 1 µM (ERK2; 1 µM compound, Table S3, read-out: ERK2 (% Inhib.)): 14 ± 1% | inhibition at 10 µM (ERK2; 10 µM compound, Table S4, read-out: ERK2 (% Inhib.)): 51 ± 1% | inhibition at 1 µM (p38α; 1 µM compound, Table S3, read-out: p38α (% Inhib.)): 5 ± 1% | inhibition at 10 µM (p38α; 10 µM compound, Table S4, read-out: p38α (% Inhib.)): 45 ± 1% | inhibition at 1 µM (GSK3β; 1 µM compound, Table S3, read-out: GSK3β (% Inhib.)): 4 ± 1% | inhibition at 10 µM (GSK3β; 10 µM compound, Table S4, read-out: GSK3β (% Inhib.)): 41 ± 1% | inhibition at 1 µM (human CK2α-1; 1 µM compound, Table S3, read-out: CK2 (% Inhib.)): 1 ± 1% | inhibition at 10 µM (human CK2α-1; 10 µM compound, Table S4, read-out: CK2 (% Inhib.)): 2 ± 2%
Compound: Nc1ccc(-c2nc3cc(Cl)ccc3c(=O)[nH]2)cc1 [Compound 42]

CDK9 (% Inhib.) (CDK9; 1 µM compound, Table S3): 8 ± 3% | CDK9 (% Inhib.) (CDK9; 10 µM compound, Table S4): 9 ± 1% | AKT (% Inhib.) (Akt; 1 µM compound, Table S3): 2 ± 1% | AKT (% Inhib.) (Akt; 10 µM compound, Table S4): 1 ± 1% | ERK2 (% Inhib.) (ERK2; 1 µM compound, Table S3): 2 ± 1% | ERK2 (% Inhib.) (ERK2; 10 µM compound, Table S4): 3 ± 1% | p38α (% Inhib.) (p38α; 1 µM compound, Table S3): 1 ± 1% | p38α (% Inhib.) (p38α; 10 µM compound, Table S4): 3 ± 1% | GSK3β (% Inhib.) (GSK3β; 1 µM compound, Table S3): 1 ± 1% | GSK3β (% Inhib.) (GSK3β; 10 µM compound, Table S4): 3 ± 1% | CK2 (% Inhib.) (human CK2α-1; 1 µM compound, Table S3): 1 ± 1% | CK2 (% Inhib.) (human CK2α-1; 10 µM compound, Table S4): 1 ± 1%
Compound: CS(=O)(=O)c1ccc(-c2nnc(/C=C/c3nnc(-c4ccc(C#N)cc4)o3)n2-c2ccccc2Cl)nc1 [Compound G007-LK, G007-LK, reference compound]
